The subject of the test is LPS-induced IL-6 release level from THP-1 cells. As to the kind of experiment: Test of IL-6 release from THP-1 cells (LPS-induced, IL-6 in supernatant detected by CBA). The test is classed as cell-based. As to conditions: Homo sapiens, read-out: Inhibition rate @ 10 uM. How it is done:
Test of IL-6 Release from THP-1 Cells
The inhibitory effect of the compound on LPS-induced IL-6 release level from THP-1 cells was evaluated by measuring the level of IL-6 in the cell culture supernatant.
4 ul was taken from each above solution and added to lml of culture solution to make 120 uM, 40 uM, 12 uM, 4 uM. 50 ul per well was taken and added to wells with cells to give final concentrations of 30 uM, 10 uM, 3 uM, and 1 uM, respectively. Dexamethasone was added as a positive drug into an individual cell well with a final concentration of 100 nM. • c) Cell stimulation
The LPS 1 mg/ml solution was diluted to 800 ng/ml with the culture solution and added to the cell culture wells at 50 ul/well. • d) Cell incubation and detection
The cell culture plate was placed in a 37° C. incubator, and the supernatant was collected after culturing for 24 hours. The level of IL-6 in the supernatant was detected by CBA.

[1] abbreviates: inflammatory factor IL-6 detected by CBA, compound 10 uM, LPS-stimulated THP-1 cells, supernatant after 24 hours.

Structures are written as SMILES. Like-named read-outs stand apart in the source and are kept apart here. Where only a bound is given, the exact number is not on record here.

Usually inhibition stands for how much of the control response was suppressed.

In the case of `C=C1CCC2[C@]3(C)CO[C@@H](C4CCCC4)O[C@@H]3CC[C@@]2(C)[C@@H]1CCNc1cnoc1` (stereo partly drawn) [Compound 207, N-(2-((3R,4aR,6aS,7R,10bR)-3-cyclopentyl-6a,10b-dimethyl-8-decahydromethylene-1H-naphtho[2,1-d][1,3]dioxin-7-yl)ethyl)isoxazol-4-amine], the inhibition at 10 µM under setting [1] lay in the range of 30 to 60%. Same read-out and setting: the value for `C=C1CCC2[C@]3(C)CO[C@@H](C4CCCC4)O[C@@H]3CC[C@@]2(C)[C@@H]1CCOC1CCN(CCO)CC1` (stereo partly drawn) [Compound 482, 2-(4-(2-((3R,4aR,6aS,7R,10bR)-3-cyclopentyl-6a,10b-dimethyl-8-dihydromethylenedecahydro-1H-naphtho[2,1-d][1,3]dioxin-7-yl)ethoxy)piperidine-1-yl)ethanol] was > 60%. `C=C1CCC2[C@]3(C)CO[C@@H](C4CCCC4)O[C@@H]3CC[C@@]2(C)[C@@H]1CCOc1ccncc1C#N` (stereo partly drawn) [Compound 349, 4-(2-((3R,4aR,6aS,7R,10bR)-3-cyclopentyl-6a,10b-dimethyl-8-dihydromethylenedecahydro-1H-naphtho[2,1-d][1,3]dioxin-7-yl)ethoxy)cyanopyridine]: the inhibition at 10 µM under setting [1] is > 60%. For `C=C1CCC2[C@]3(C)CO[C@@H](C4CCCC4)O[C@@H]3CC[C@@]2(C)[C@@H]1CCOc1cncc(C(=O)O)c1` (stereo partly drawn) [Compound 406, 5-(2-((3R,4aR,6aS,7R,10bR)-3-cyclopentyl-6a,10b-dimethyl-8-dihydromethylenedecahydro-1H-naphtho[2,1-d][1,3]dioxin-7-yl)ethoxy)nicotinic acid], the inhibition at 10 µM (THP-1, 24 h) was < 30%. Consider `C=C1CCC2[C@]3(C)CO[C@@H](C4CCCC4)O[C@@H]3CC[C@@]2(C)[C@@H]1CCOc1ccnc(C(=O)O)c1` (stereo partly drawn) [Compound 410, 4-(2-((3R,4aR,6aS,7R,10bR)-3-cyclopentyl-6a,10b-dimethyl-8-dihydromethylenedecahydro-1H-naphtho[2,1-d][1,3]dioxin-7-yl)ethoxy)picolinic acid], for which the inhibition at 10 µM under setting [1] lay within 30 to 60%.

With `C=C1CCC2[C@]3(C)CO[C@@H](C4CCCC4)O[C@@H]3CC[C@@]2(C)[C@@H]1CCOc1ccnc(C)c1` (stereo partly drawn) [Compound 319, 4-(2-((3R,4aR,6aS,7R,10bR)-3-cyclopentyl-6a,10b-dimethyl-8-dihydromethylenedecahydro-1H-naphtho[2,1-d][1,3]dioxin-7-yl)ethoxy)-2-methylpyridine], the inhibition at 10 µM under setting [1] is 30 to 60%. Consider `C=C1CCC2[C@]3(C)COC(C)(C)O[C@@H]3CC[C@@]2(C)[C@@H]1CCOc1ccncc1` (stereo partly drawn) [Compound 402, 4-(2-((4aR,6aS,7R,10bR)-3,3,6a, 10b-tetramethyl-8-dihydromethylenedecahydro-1H-naphtho[2,1-d][1,3]dioxin-7-yl)ethoxy)pyridine], for which, under setting [1], the inhibition at 10 µM is > 60%.

Regarding `C=C1CCC2[C@]3(C)CO[C@@H](c4ccc(F)c(F)c4)O[C@@H]3CC[C@@]2(C)[C@@H]1CCN1CCN(C)C1=O` (stereo partly drawn) [Compound 212, 3-(2-((3R,4aR,6aS,7R,10bR)-3-(3,4-difluorophenyl)-6a,10b-dimethyl-8-decahydromethylene-1H-naphtho[2,1-d][1,3]dioxin-7-yl)ethyl)-1-methyltetrahydroimidazol-2-one], the inhibition at 10 µM under setting [1] was > 60%. For the compound `C=C1CCC2[C@]3(C)CO[C@@H](C4CCCC4)O[C@@H]3CC[C@@]2(C)[C@@H]1CCOc1cc(F)ccc1C(=O)O` (stereo partly drawn) [Compound 441, 2-(2-((3R,4aR,6aS,7R,10bR)-3-cyclopentyl-6a,10b-dimethyl-8-dihydromethylenedecahydro-1H-naphtho[2,1-d][1,3]dioxin-7-yl)ethoxy)-4-fluorobenzoic acid], the inhibition at 10 µM under setting [1] was in the range of 30 to 60%.

Turning to `C=C1CCC2[C@]3(C)CO[C@@H](C4CCCC4)O[C@@H]3CC[C@@]2(C)[C@@H]1CCN1CCC[C@H]1C(=O)OC` (stereo partly shown) [Compound 147], the inhibition at 10 µM under setting [1] is < 30%. On to `C=C1CCC2[C@]3(C)CO[C@@H](C4CCCC4)O[C@@H]3CC[C@@]2(C)[C@@H]1CCOc1ccnc(OC)c1` (stereo partly drawn) [Compound 420, 4-(2-((3R,4aR,6aS,7R,10bR)-3-cyclopentyl-6a,10b-dimethyl-8-dihydromethylenedecahydro-1H-naphtho[2,1-d][1,3]dioxin-7-yl)ethoxy)-2-methoxypyridine], for which, under setting [1], the inhibition at 10 µM was < 30%. The same measure, in the same setting: the value for `C=C1CCC2[C@]3(C)CO[C@@H](C4CCCC4)O[C@@H]3CC[C@@]2(C)[C@@H]1CCN1CCC(N(CC)CC)CC1` (stereo partly drawn) [Compound 150, 1-(2-((4aR,6aS,7R,10bR)-3-cyclopentyl-6a,10b-dimethyl-8-methylene-decahydro-1H-naphtho[2,1-d][1,3]dioxin-7-yl)ethyl)-N,N-diethylpiperidin-4-amine] was 30 to 60%. Regarding `C=C1CCC2[C@]3(C)CO[C@@H](C4CCCC4)O[C@@H]3CC[C@@]2(C)[C@@H]1CCOc1cncc(O)c1` (stereo partly drawn) [Compound 443, 5-(2-((3R,4aR,6aS,7R,10bR)-3-cyclopentyl-6a,10b-dimethyl-8-dihydromethylenedecahydro-1H-naphtho[2,1-d][1,3]dioxin-7-yl)ethoxy)-pyridin-3-ol], the inhibition at 10 µM under setting [1] is 30 to 60%. With `C=C1CCC2[C@]3(C)CO[C@@H](C4CCCC4)O[C@@H]3CC[C@@]2(C)[C@@H]1CCN1CCC2(CCN(C)CC2)C1` (stereo partly shown) [Compound 181], the inhibition at 10 µM under setting [1] is < 30%. `C=C1CCC2[C@]3(C)CO[C@@H](C4CCCC4)O[C@@H]3CC[C@@]2(C)[C@@H]1CCOC1CCN(C(=O)CN)CC1` (stereo partly drawn) [Compound 373, 2-Amino-1-(4-(2-((3R,4aR,6aS,7R,10bR)-3-cyclopentyl-6a,10b-dimethyl-8-methylenedecahydro-1H-naphtho[2,1-d][1,3]dioxin-7-yl)ethoxy)piperidine-1-yl)acetamide]: for the setting “THP-1, 24 h”, the inhibition at 10 µM lay in the range of 30 to 60%.

Regarding `C=C1CCC2[C@](C)(CO)[C@H](O)CC[C@@]2(C)[C@@H]1CCOc1ccncc1` (stereo partly drawn) [Compound 385, (1R,2R,4aS,5R)-1-(hydroxymethyl)-1,4a-dimethyl-6-dihydromethylene-5-(2-(pyridin-4-oxy)ethyl) decahydronaphthalene-2-ol], the inhibition at 10 µM under setting [1] was > 60%. For the compound `C=C1CCC2[C@]3(C)CO[C@@H](C4CCCC4)O[C@@H]3CC[C@@]2(C)[C@@H]1CCOc1cc(Cl)ccc1C(=O)O` (stereo partly drawn) [Compound 448, 4-chloro-2-(2-((3R,4aR,6aS,7R,10bR)-3-cyclopentyl-6a,10b-dimethyl-8-dihydromethylenedecahydro-1H-naphtho[2,1-d][1,3]dioxin-7-yl)ethoxy)benzoic acid], the inhibition at 10 µM (THP-1, 24 h) was < 30%. Regarding `C=C1CCC2[C@]3(C)CO[C@@H](C4CCCC4)O[C@@H]3CC[C@@]2(C)[C@@H]1CCOc1ccc(C(=O)O)cc1` (stereo partly drawn) [Compound 422, 4-(2-((3R,4aR,6aS,7R,10bR)-3-cyclopentyl-6a,10b-dimethyl-8-dihydromethylenedecahydro-1H-naphtho[2,1-d][1,3]dioxin-7-yl)ethoxy)benzoic acid], the inhibition at 10 µM under setting [1] lay in the range of 30 to 60%. Turning to `C=C1CCC2[C@]3(C)CO[C@@H](C4CCCC4)O[C@@H]3CC[C@@]2(C)[C@@H]1CCOc1ccncc1C(=O)O` (stereo partly drawn) [Compound 397, 4-(2-((3R,4aR,6aS,7R,10bR)-3-cyclopentyl-6a,10b-dimethyl-8-dihydromethylenedecahydro-1H-naphtho[2,1-d][1,3]dioxin-7-yl)ethoxy)nicotinic acid], the inhibition at 10 µM under setting [1] is > 60%. As for `C=C1CCC2[C@]3(C)CO[C@@H](C4CCCC4)O[C@@H]3CC[C@@]2(C)[C@@H]1CCn1cc(C(=O)O)cn1` (stereo partly drawn) [Compound 458, 1-(2-((3R,4aR,6aS,7R,10bR)-3-cyclopentyl-6a,10b-dimethyl-8-dihydromethylene-1H-naphtho[2,1-d][1,3]dioxin-7-yl)ethyl)-1H-pyrazole-4-carboxylic acid], the inhibition at 10 µM under setting [1] is 30 to 60%. As to `C=C1CCC2[C@]3(C)CO[C@@H](CCC(=O)OC)O[C@@H]3CC[C@@]2(C)[C@@H]1CCOc1ccncc1` (stereo partly shown) [Compound 405], under setting [1], the inhibition at 10 µM is < 30%. `C=C1CCC2[C@]3(C)CO[C@@H](C4CCCC4)O[C@@H]3CC[C@@]2(C)[C@@H]1CCOc1ccccn1` (stereo partly drawn) [Compound 317, 2-(2-((3R,4aR,6aS,7R,10bR)-3-cyclopentyl-6a,10b-dimethyl-8-dihydromethylenedecahydro-1H-naphtho[2,1-d][1,3]dioxin-7-yl)ethoxy) pyridine]: under setting [1], the inhibition at 10 µM is > 60%. On to `C=C1CCC2[C@]3(C)CO[C@@H](C4CCCC4)O[C@@H]3CC[C@@]2(C)[C@@H]1CCOc1ccc(C(=O)O)nc1` (stereo partly drawn) [Compound 432, 5-(2-((3R,4aR,6aS,7R,10bR)-3-cyclopentyl-6a,10b-dimethyl-8-dihydromethylenedecahydro-1H-naphtho[2,1-d][1,3]dioxin-7-yl)ethoxy)-2-picolinic acid], for which the inhibition at 10 µM under setting [1] is > 60%. Turning to `C=C1CCC2[C@]3(C)CO[C@@H](C4CCCC4)O[C@@H]3CC[C@@]2(C)[C@@H]1CCOc1ccc(F)cc1C(=O)O` (stereo partly drawn) [Compound 409, 2-(2-((3R,4aR,6aS,7R,10bR)-3-cyclopentyl-6a,10b-dimethyl-8-dihydromethylenedecahydro-1H-naphtho[2,1-d][1,3]dioxin-7-yl)ethoxy)-5-fluorobenzoic acid], the inhibition at 10 µM under setting [1] was < 30%. As for `C=C1CCC2[C@]3(C)CO[C@@H](C4CC4)O[C@@H]3CC[C@@]2(C)[C@@H]1CCOc1ccncc1` (stereo partly drawn) [Compound 400, 4-(2-((3R,4aR,6aS,7R,10bR)-3-cyclopropyl-6a,10b-dimethyl-8-dihydromethylenedecahydro-1H-naphtho[2,1-d][1,3]dioxin-7-yl)ethoxy)pyridine], the inhibition at 10 µM under setting [1] was > 60%.

(Values after patent publication US10717720B2, “Modified compound of andrographolide” (Heilongjiang Zhenbaodao Pharmaceutical Co., Ltd., priority 2015, dated 2020).)
